Data on five compounds can be found in patent US8404650B2, “Methods of treating cancer with doxazolidine and prodrugs thereof” (priority 2005, dated 2013).

The subject of one data set is Vero cells. The data set can be described thus: Growth inhibition of Vero cells as a measure of normal cell toxicity (MTT). The following applies: for IC50: Chlorocebus sabaeus, Vero. The data set is classed as cell-based, green monkey. The source says: Cell growth inhibition experiments initially focused on MCF-7, MCF-7/Adr, SK-HEP-1, and Hep G2 cancer cells as well as rat cardiomyocytes as a measure of cardiotoxicity and Vero cells (green monkey kidney cells) as an additional measure of normal cell toxicity.
(§1) SHP-77 small cell lung cancer cells were also of interest because they express modest amounts of both enzymes. Inhibition of the growth of cardiomyocytes was used as a measure of cardiotoxicity, and inhibition of the growth of Vero cells, green monkey kidney cells, was again used as another measure of toxicity to normal cells.

The subject of another data set is DU-145. Description: Growth inhibition of DU-145 prostate cancer cells. The data set is classed as cell-based. To be noted: for IC50: Homo sapiens. Here is the method: In vitro Activity. […] This cell suspension was dispensed in 200 μL aliquots (1000 cells/well) into the inside wells of 96-well tissue culture plates. Outside wells contained 200 μL of media. […] The medium was replaced with 90 μL of growth medium prior to addition of the drug. Doxaz was dissolved in DMSO at concentrations ranging from 50 μM to 1 mM. […] Serial dilutions (1:3 and 1:10) were made in sterile DMSO to yield seven solutions of decreasing drug concentration at 100× the respective working concentrations. […] Additionally, two lanes were treated with 10 μL of growth medium containing 10% sterile DMSO and one lane was treated with 90 μL of 1.5 M Tris HCl. […]
as §1
A more thorough characterization of the growth inhibition of a variety of cancer cells as well as rat cardiomyocytes by Formula IV (aFK-PABC-Doxaz) was evaluated in comparison with inhibition of growth by Doxaz, Dox and aFK-PABC-Dox. […] […] The breast cancer cell lines represent the multi-drug resistant (MDR) phenotype with MCF-7/Adr cells and a cell line that is transfected with the gene for urokinase plasminogen activator (uPA), the primary enzyme responsible for cleavage of plasminogen to plasmin. Rat cardiomyocytes served as a model for comparison of drug cardiotoxicity.

In a further data set the test system is SK-HEP-1. The data set can be described thus: Growth inhibition of SK-HEP-1 liver cancer cells. The data set is classed as cell-based, human. The following applies: for IC50: Homo sapiens, SK-HEP1. From the text: Cell growth inhibition experiments initially focused on MCF-7, MCF-7/Adr, SK-HEP-1, and Hep G2 cancer cells as well as rat cardiomyocytes as a measure of cardiotoxicity and Vero cells (green monkey kidney cells) as an additional measure of normal cell toxicity. […]

The test system of data set [1] is H9c2(2-1) rat cardiomyocytes. Description: Growth inhibition of rat cardiomyocytes as a measure of cardiotoxicity. The data set is classed as cell-based. To be noted: for IC50: Rattus norvegicus; for Toxicity to cardiomyocytes compared with Doxorubicin: rat cardiomyocytes. Here is the method:
Biological activity of simple Doxazolidine carbamates. Since the prodrug carbamates were designed to be activated by carboxylesterases CES1 (hCE1) and/or CES2 (hiCE), cell lines of interest were measured for expression of the respective mRNAs using reverse transcription (RT) followed by PCR (polymerase chain reaction). Cancer cell lines investigated included SHP-77 resistant small cell lung, DU-145 prostate, MCF-7 sensitive breast, MCF-7/Adr resistant breast, SK-HEP-1 liver, and Hep G2 liver cells. As a measure of possible cardiotoxicity, H9c2(2-1) rat cardiomyocytes were also investigated. Cardiotoxicity is relevant because the ultimate product of metabolism and subsequent hydrolysis of these carbamates is doxorubicin, which is cardiotoxic. […] Additionally, the rat cardiomyocytes, H9c2(2-1), also express more CES2 than CES1.
Cell growth inhibition experiments initially focused on MCF-7, MCF-7/Adr, SK-HEP-1, and Hep G2 cancer cells as well as rat cardiomyocytes as a measure of cardiotoxicity and Vero cells (green monkey kidney cells) as an additional measure of normal cell toxicity. The butyl and pentyl carbamates inhibited the growth of MCF-7, MCF-7/Adr, and SK-HEP-1 cell lines with a 24 h drug treatment period with some selectivity for cancer cells over cardiomyocytes relative to growth inhibition by Dox as shown in Table 2. […] The relative inactivity of the ethyl carbamate may indicate that a substantial lipophilic interaction is required at the active site of the carboxylesterases to hold the Doxaz substrate.
Biological activity of Doxazolidine carbamates with self-eliminating spacer. […] SHP-77 small cell lung cancer cells were also of interest because they express modest amounts of both enzymes. Inhibition of the growth of cardiomyocytes was used as a measure of cardiotoxicity, and inhibition of the growth of Vero cells, green monkey kidney cells, was again used as another measure of toxicity to normal cells. They also show more activity against the cancer cells that express higher levels of CES1. Of particular note is the higher activity against Hep G2 cells than against SK-HEP-1 cells. […] The low toxicity of pentyl PABC-Doxaz to cardiomyocytes relative to the toxicity of Dox is encouraging and consistent with the low level of expression of CES1 in cardiomyocytes.
A more thorough characterization of the growth inhibition of a variety of cancer cells as well as rat cardiomyocytes by Formula IV (aFK-PABC-Doxaz) was evaluated in comparison with inhibition of growth by Doxaz, Dox and aFK-PABC-Dox. Cells were treated with drug for 3 h and colony growth was measured at 3 to 5 days when cells reached about 80% confluence. The cancer cells included one prostate cancer cell line (DU-145), three related breast cancer cell lines (MCF-7, MCF-7/Adr, and MCF-7 uPA), and one pancreatic cancer cell line (Mia PaCa-2). The breast cancer cell lines represent the multi-drug resistant (MDR) phenotype with MCF-7/Adr cells and a cell line that is transfected with the gene for urokinase plasminogen activator (uPA), the primary enzyme responsible for cleavage of plasminogen to plasmin. Rat cardiomyocytes served as a model for comparison of drug cardiotoxicity. Growth inhibition was also measured with added plasmin. aFK-PABC-Doxaz inhibited the growth of most of the cancer cells 0.5 log or more better than did aFK-PABA-Dox. Although not as dramatic, this differential response paralleled the differential response between Doxaz and Dox which is approximately two logs except for the MDR expressing, MCF-7/Adr cells which show more than three logs differential response. […] Addition of 0.01 unit/mL of plasmin has no effect on the activity of Dox but increases the activity of both aFK-PABC-Doxaz and aFK-PABC-Dox, in some cases by more than a log. Addition of 0.01 unit/mL plasminogen increases the activity of aFK-PABC-Doxaz on average by 0.3 log. […]

The next data set deals with MDA-MB-435. Description: Growth inhibition of MDA-MB-435 breast cancer cells. The data set is classed as cell-based. The following applies: Homo sapiens. How it is done: In vitro Activity. […] This cell suspension was dispensed in 200 μL aliquots (1000 cells/well) into the inside wells of 96-well tissue culture plates. Outside wells contained 200 μL of media. […] The medium was replaced with 90 μL of growth medium prior to addition of the drug. Doxaz was dissolved in DMSO at concentrations ranging from 50 μM to 1 mM. […] Serial dilutions (1:3 and 1:10) were made in sterile DMSO to yield seven solutions of decreasing drug concentration at 100× the respective working concentrations. […] Additionally, two lanes were treated with 10 μL of growth medium containing 10% sterile DMSO and one lane was treated with 90 μL of 1.5 M Tris HCl. The cells were incubated at 37° C. for 3 h, at which time the drug solutions were replaced with 200 μL of fresh growth medium.
Activity of plasmin-activated prodrugs.

Setting [2] is: 24 h drug treatment, crystal violet.
[3] abbreviates: 3 h drug treatment, read-out: Growth inhibition IC50, Vero, 3 h (converted).
[4] abbreviates: 24 h drug treatment, read-out: Growth inhibition IC50, Vero, 24 h (converted).
[5] abbreviates: 3 h drug treatment, crystal violet, read-out: Growth inhibition IC50, SK-HEP-1, 3 h (converted).
The mark [6] stands for this setting: H9c2, 3 h, read-out: Growth inhibition IC50, H9c2(2-1), 3 h.
Setting [7] is: MDA-MB-435, read-out: IC50 MDA-MB-435, top line of the cell.
Setting [8] is: DU-145, read-out: IC50 DU-145, top line of the cell.

Read-outs that look alike come from different tables or passages of the source.

Turning to `CCCCCOC(=O)Nc1ccc(COC(=O)N2COC3C(C)OC(OC4CC(O)(C(=O)CO)Cc5c(O)c6c(c(O)c54)C(=O)c4c(OC)cccc4C6=O)CC32)cc1` (stereo not shown) [Pentyl PABC-Doxaz, Pentyl 4-(N-doxazolidinylcarbonyloxymethyl)phenylcarbamate], the “Growth inhibition IC50, Vero, 24 h” value in the data set with Vero cells (24 h drug treatment) is −6.0 ± 0.04 log of the molar concentration. For the same compound, the “Cell growth inhibition IC50, DU-145” value with DU-145 (setting [2]) is −6.7 ± 0.07 log of molar concentrations. For the same compound, the “Growth inhibition IC50, SK-HEP-1, 24 h” value in the data set on SK-HEP-1 (setting [2]) is −6.0 ± 0.06 log of the molar concentration. In addition, the “Growth inhibition IC50, H9c2(2-1), 24 h” value in data set [1] (setting [2]) is −6.2 ± 0.2 log of the molar concentration.

A word on the IC50: it is the concentration needed to halve the response being measured. Turning to `COc1cccc2c1C(=O)c1c(O)c3c(c(O)c1C2=O)C[C@@](O)(C(=O)CO)C[C@@H]3O[C@H]1C[C@@H]2NCO[C@@H]2[C@H](C)O1` [Doxaz, Doxazolidine], the IC50 in the data set with MDA-MB-435 (MDA-MB-435, 3 h drug treatment, growth at 5 days, read-out: IC50 MDA-MB-435) is 7 ± 0.3 nM; with Vero cells (setting [3]), 6.31 nM; with Vero cells (setting [4]), 7.94 nM; in the data set with DU-145 (DU-145, read-out: IC50 DU-145), 4 ± 0.6 nM; in the data set with SK-HEP-1 (setting [5]), 3.98 nM; in data set [1] (setting [6]), 31.6 nM. The “Toxicity to cardiomyocytes compared with Doxorubicin” value in data set [1] was “no more cardiotoxic than Doxorubicin”.

`COc1cccc2c1C(=O)c1c(O)c3c(c(O)c1C2=O)C[C@@](O)(C(=O)CO)C[C@@H]3O[C@H]1C[C@H]2[C@H](OCN2C(=O)OCc2ccc(NC(=O)[C@H](CCCCN)NC(=O)[C@H](Cc3ccccc3)NC(=O)[C@@H](C)N)cc2)[C@H](C)O1` [Formula IV, D-Ala-L-Phe-L-Lys-p-aminobenzyloxycarbonyl-Doxaz]: the IC50 with MDA-MB-435 (setting [7]) is 240 nM; in the data set on MDA-MB-435 (MDA-MB-435, + plasmin, second stacked value, read-out: IC50 MDA-MB-435 + plasmin), 40 nM; with DU-145 (DU-145, read-out: IC50 DU-145 + plasmin), 6 nM; with DU-145 (setting [8]), 160 nM; in data set [1] (H9c2, read-out: IC50 Rat Cardio. + plasmin) it was 40 nM.

Consider `COc1cccc2c1C(=O)c1c(O)c3c(c(O)c1C2=O)C[C@@](O)(C(=O)CO)C[C@@H]3O[C@H]1C[C@H](N)[C@H](O)[C@H](C)O1` [Doxorubicin, reference compound], for which the IC50 in the data set on MDA-MB-435 (MDA-MB-435, read-out: IC50 MDA-MB-435) is 150 ± 14 nM; with MDA-MB-435 (setting [7]), 150 nM; with Vero cells (setting [3]), 1000 nM; in the data set on Vero cells (setting [4]), 501 nM; in the data set on DU-145 (DU-145, 24 h, read-out: Cell growth inhibition IC50, DU-145), 31.6 nM; with DU-145 (DU-145, read-out: IC50 DU-145) it was 240 nM. Moreover, the IC50 in the data set with DU-145 (setting [8]) was 300 nM; in the data set with SK-HEP-1 (setting [5]), 100 nM; with SK-HEP-1 (24 h drug treatment, crystal violet, read-out: Growth inhibition IC50, SK-HEP-1, 24 h (converted)) it was 50.1 nM; in data set [1] (setting [6]) it was 31.6 nM; in data set [1] (H9c2, 24 h, read-out: Growth inhibition IC50, H9c2(2-1), 24 h), 20 nM; in data set [1] (H9c2, read-out: IC50 Rat Cardio., top line of the cell), 20 nM.

For `COc1cccc2c1C(=O)c1c(O)c3c(c(O)c1C2=O)C[C@@](O)(C(=O)CO)C[C@@H]3OC1CC2C(OCN2CN2COC3C(C)OC(O[C@H]4C[C@](O)(C(=O)CO)Cc5c(O)c6c(c(O)c54)C(=O)c4c(OC)cccc4C6=O)CC32)C(C)O1` (stereo partly shown) [DoxF, Doxoform, reference compound], the IC50 in the data set with DU-145 (DU-145, 3 h, read-out: IC50 DU-145) was found to be 3 nM. For the same compound, the “IC50 lower than doxorubicin, SK-HEP-1” value in the data set with SK-HEP-1 is recorded as “more than 25 fold”. In addition, the “Toxicity to cardiomyocytes compared with Doxorubicin” value in data set [1] was “no more toxic to cardiomyocytes than Doxorubicin”.
